Converted amounts (≈) assume the structure as drawn. Where two headings read alike, the source gives them in different places. Bridge positions count the residues as written; N and C are the ends. Square brackets hold non-standard residues; d marks the D form. Peptide text beside a SMILES is read from it. * marks the point of attachment. X16 = Cc1cc(C)cc(CO[C@@H](CCN)C(=O)*)c1; dCha = N[C@H](CC1CCCCC1)C(=O)O; Dab = NCC[C@H](N)C(=O)O; Dap = NC[C@H](N)C(=O)O
What was measured:
Type in all cases: cell-based
Pseudomonas aeruginosa = system: Pseudomonas aeruginosa
Procedure, shortened: (§1)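 Strain panels of up to nine per species, with resistant and Polymyxin-tolerant strains included, were used for susceptibility testing; read-out was MIC (μg/mL).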

Escherichia coli = system: Escherichia coli
Procedure, shortened: as §1

Acinetobacter baumannii = system: Acinetobacter baumannii
Procedure, shortened: as §1

Klebsiella pneumoniae = system: Klebsiella pneumoniae
Procedure, shortened: as §1

HK-2 cells = system: HK-2 cells
Text: Values are reported relative to Polymyxin B.

Compound | MIC P. aeruginosa 068 (Pseudomonas aeruginosa) [µg/mL] | MIC P. aeruginosa 070 (Pseudomonas aeruginosa) [µg/mL] | MIC P. aeruginosa ATCC 27853 (Pseudomonas aeruginosa) [µg/mL] | MIC E. coli 058 (Escherichia coli) [µg/mL] | MIC E. coli 059 (Escherichia coli) [µg/mL] | MIC E. coli 060 (Escherichia coli) [µg/mL] | MIC E. coli 061 (Escherichia coli) [µg/mL] | MIC E. coli ATCC 25922 (Escherichia coli) [µg/mL] | MIC A. baumanii 053 (Acinetobacter baumannii) [µg/mL] | MIC A. baumanii 056 (Acinetobacter baumannii) [µg/mL] | MIC A. baumanii ATCC BAA-747 (Acinetobacter baumannii) [µg/mL] | MIC K. pneumoniae 062 (Klebsiella pneumoniae) [µg/mL] | MIC K. pneumoniae 063 (Klebsiella pneumoniae) [µg/mL] | MIC K. pneumoniae 064 (Klebsiella pneumoniae) [µg/mL] | MIC K. pneumoniae 065 (Klebsiella pneumoniae) [µg/mL] | MIC K. pneumoniae 067 (Klebsiella pneumoniae) [µg/mL] | MIC K. pneumoniae ATCC 4352 (Klebsiella pneumoniae) [µg/mL] | HK-2 IC50 (HK-2 cells) [µg/mL] | MIC K. pneumoniae 066 (Klebsiella pneumoniae) [µg/mL] | further results
2-(2- Aminoethyl) octanoyl L- Thr-L-Dap- polymyxin heptapeptide [Example C6, reference compound] | – | – | – | – | – | – | – | – | – | – | – | – | – | – | – | – | – | – | – | MIC P. aeruginosa 068 (Pseudomonas aeruginosa; strain 068): 2 µg/mL; MIC P. aeruginosa 070 (Pseudomonas aeruginosa; strain 070): 8 µg/mL; MIC P. aeruginosa ATCC 27853 (Pseudomonas aeruginosa; strain ATCC 27853): 0.125 µg/mL; MIC P. aeruginosa CCUG 59347 (Pseudomonas aeruginosa; strain CCUG 59347): 0.125 µg/mL; MIC E. coli 058 (Escherichia coli; strain 058): 1 µg/mL; MIC E. coli 061 (Escherichia coli; strain 061): 8 µg/mL; MIC E. coli ATCC 25922 (Escherichia coli; strain ATCC 25922): 0.125 µg/mL; MIC E. coli NCTC 9001 (Escherichia coli; strain NCTC 9001): 0.06 µg/mL; MIC A. baumanii 053 (Acinetobacter baumannii; strain 053): 32 µg/mL; MIC A. baumanii 056 (Acinetobacter baumannii; strain 056): 32 µg/mL; MIC A. baumanii ATCC BAA-747 (Acinetobacter baumannii; strain ATCC BAA-747): 0.06 µg/mL; MIC A. baumanii NCTC 13424 (Acinetobacter baumannii; strain NCTC 13424): 0.03 µg/mL; MIC K. pneumoniae 063 (Klebsiella pneumoniae; strain 063): 8 µg/mL; MIC K. pneumoniae 065 (Klebsiella pneumoniae; strain 065): 0.25 µg/mL; MIC K. pneumoniae ATCC 4352 (Klebsiella pneumoniae; strain ATCC 4352): 0.06 µg/mL; MIC K. pneumoniae ATCC 13882 (Klebsiella pneumoniae; strain ATCC 13882): 0.125 µg/mL; HK-2 IC50 (HK-2 cells; HK-2 cells): 51 µg/mL
CC(C)CC1CNCC(C(=O)N[C@H](C(=O)N[C@@H](CN)C(=O)N[C@H]2CCNC(=O)[C@H]([C@@H](C)O)NC(=O)[C@H](CCN)NC(=O)[C@H](CCN)NC(=O)[C@H](CC(C)C)NC(=O)[C@@H](Cc3ccc(-c4ccccc4)cc3)NC(=O)[C@H](CCN)NC2=O)C(C)O)C1 (single isomer, unassigned; isomer 1) [Example 3, (trans-5-(isobutyl-piperidine)-3-carbonyl L-Thr-L-Dap-polymyxin [D-(4-phenyl)Phe]-6] heptapeptide. Isomer 1] | 4 (≈ 3.35 µM) | 4 (≈ 3.35 µM) | 1 (≈ 0.839 µM) | 8 (≈ 6.71 µM) | 8 (≈ 6.71 µM) | 16 (≈ 13.4 µM) | 32 (≈ 26.8 µM) | 0.5 (≈ 0.419 µM) | 64 (≈ 53.7 µM) | 4 (≈ 3.35 µM) | 2 (≈ 1.68 µM) | >64 | >64 | 32 (≈ 26.8 µM) | 32 (≈ 26.8 µM) | >64 | 0.5 (≈ 0.419 µM) | 34 | – | –
CC(C)CC(CN)C(=O)N[C@H](C(=O)N[C@@H](CN)C(=O)N[C@H]1CCNC(=O)[C@H]([C@@H](C)O)NC(=O)[C@H](CCN)NC(=O)[C@H](CCN)NC(=O)[C@H](CC(C)C)NC(=O)[C@@H](Cc2ccc(-c3ccc(C(F)(F)F)cc3)cc2)NC(=O)[C@H](CCN)NC1=O)C(C)O (single isomer, unassigned; isomer 1) [Example 20, 2-Aminomethyl-4-methyl pentanoyl polymyxin L-Thr-L-Dap-polymyxin [D-{4-(4-trifluoromethyl)phenyl} Phe]-6]heptapeptide. Isomer 1] | – | – | 1 (≈ 0.819 µM) | 4 (≈ 3.28 µM) | – | – | – | 1 (≈ 0.819 µM) | – | – | 0.5 (≈ 0.41 µM) | – | – | – | 1 (≈ 0.819 µM) | – | 0.5 (≈ 0.41 µM) | 10 | – | –
CC(C)C[C@@H]1NC(=O)[C@@H](CC2CCCCC2)NC(=O)[C@H](CCN)NC(=O)[C@@H](NC(=O)[C@H](CN)NC(=O)[C@@H](NC(=O)CC(N)C2CCCCC2)C(C)O)CCNC(=O)[C@H]([C@@H](C)O)NC(=O)[C@H](CCN)NC(=O)[C@H](CCN)NC1=O (single isomer, unassigned; isomer 1) [Example 32, 3-amino-3-cyclohexylpropanoyl L-Thr-L-Dap-polymyxin [D-cyclohexylalanine]-6 heptapeptide. Isomer 1] | 4 (≈ 3.61 µM) | 4 (≈ 3.61 µM) | 0.5 (≈ 0.451 µM) | 2 (≈ 1.8 µM) | – | – | 16 (≈ 14.4 µM) | 0.25 (≈ 0.226 µM) | – | 64 (≈ 57.7 µM) | 0.25 (≈ 0.226 µM) | – | 16 (≈ 14.4 µM) | – | – | – | 0.06 (≈ 0.0541 µM) | 73 | – | MIC P. aeruginosa CCUG 59347 (Pseudomonas aeruginosa): 0.5 µg/mL (≈ 0.451 µM); MIC E. coli NCTC 9001 (Escherichia coli): 0.125 µg/mL (≈ 0.113 µM); MIC A. baumanii NCTC 13424 (Acinetobacter baumannii): 0.06 µg/mL (≈ 0.0541 µM); MIC K. pneumoniae ATCC 13882 (Klebsiella pneumoniae): 0.25 µg/mL (≈ 0.226 µM)
CCCCCCCCC1CNCC1C(=O)N[C@H](C(=O)N[C@@H](CCN)C(=O)N[C@H]1CCNC(=O)[C@H]([C@@H](C)O)NC(=O)[C@H](CCN)NC(=O)[C@H](CCN)NC(=O)[C@H](CC(C)C)NC(=O)[C@@H](Cc2ccc(-c3ccccc3)cc2)NC(=O)[C@H](CCN)NC1=O)C(C)O (single isomer, unassigned; isomer 2) [Example 8, trans-4-octylpyrrolidine-3-carbonyl polymyxin [D-(4-phenyl)Phe]-6] nonapeptide. Isomer 2] | 2 (≈ 1.6 µM) | 2 (≈ 1.6 µM) | 1 (≈ 0.801 µM) | 2 (≈ 1.6 µM) | 1 (≈ 0.801 µM) | 2 (≈ 1.6 µM) | 4 (≈ 3.2 µM) | 1 (≈ 0.801 µM) | 4 (≈ 3.2 µM) | 2 (≈ 1.6 µM) | 1 (≈ 0.801 µM) | 4 (≈ 3.2 µM) | – | 1 (≈ 0.801 µM) | 1 (≈ 0.801 µM) | 8 (≈ 6.41 µM) | 1 (≈ 0.801 µM) | 3 | 0.5 (≈ 0.4 µM) | –
CCCCCCCCC1CNCC1C(=O)N[C@H](C(=O)N[C@@H](CCN)C(=O)N[C@H]1CCNC(=O)[C@H]([C@@H](C)O)NC(=O)[C@H](CCN)NC(=O)[C@H](CCN)NC(=O)[C@H](CC(C)C)NC(=O)[C@@H](Cc2ccccc2-c2ccccc2)NC(=O)[C@H](CCN)NC1=O)C(C)O (single isomer, unassigned; isomer 2) [Example 10, trans-4-octylpyrrolidine-3-carbonyl polymyxin [D-(2-phenyl)Phe]-6] nonapeptide. Isomer 2] | 2 (≈ 1.6 µM) | 2 (≈ 1.6 µM) | 2 (≈ 1.6 µM) | 1 (≈ 0.801 µM) | 1 (≈ 0.801 µM) | 2 (≈ 1.6 µM) | 2 (≈ 1.6 µM) | 2 (≈ 1.6 µM) | 4 (≈ 3.2 µM) | 4 (≈ 3.2 µM) | 1 (≈ 0.801 µM) | 2 (≈ 1.6 µM) | 8 (≈ 6.41 µM) | 2 (≈ 1.6 µM) | 1 (≈ 0.801 µM) | 4 (≈ 3.2 µM) | 1 (≈ 0.801 µM) | 4 | 4 (≈ 3.2 µM) | –
CC(C)CC1CNCC(C(=O)N[C@H](C(=O)N[C@@H](CN)C(=O)N[C@H]2CCNC(=O)[C@H]([C@@H](C)O)NC(=O)[C@H](CCN)NC(=O)[C@H](CCN)NC(=O)[C@H](CC(C)C)NC(=O)[C@@H](Cc3ccc(Br)cc3)NC(=O)[C@H](CCN)NC2=O)C(C)O)C1 (single isomer, unassigned; isomer 2) [Example 12, (trans-5-(isobutyl-piperidine)-3-carbonyl L-Thr-L-Dap-polymyxin [D-(4-bromo Phe)]-6] heptapeptide Isomer 2] | 1 (≈ 0.837 µM) | 1 (≈ 0.837 µM) | 0.25 (≈ 0.209 µM) | 0.25 (≈ 0.209 µM) | 1 (≈ 0.837 µM) | 1 (≈ 0.837 µM) | 1 (≈ 0.837 µM) | 0.125 (≈ 0.105 µM) | 8 (≈ 6.69 µM) | – | 0.125 (≈ 0.105 µM) | 8 (≈ 6.69 µM) | 4 (≈ 3.35 µM) | 1 (≈ 0.837 µM) | 0.5 (≈ 0.418 µM) | 8 (≈ 6.69 µM) | 0.125 (≈ 0.105 µM) | 54 | 1 (≈ 0.837 µM) | –
Cc1cc(C)cc(CO[C@@H](CCN)C(=O)N[C@H](C(=O)N[C@@H](CN)C(=O)N[C@H]2CCNC(=O)[C@H]([C@@H](C)O)NC(=O)[C@H](CCN)NC(=O)[C@H](CCN)NC(=O)[C@H](CC(C)C)NC(=O)[C@@H](CC3CCCCC3)NC(=O)[C@H](CCN)NC2=O)[C@@H](C)O)c1 [Example 90, (S)-4-amino-2-((3,5-dimethylbenzyl)oxy)butanoyl L-Thr-L-Dap-polymyxin [D-cyclohexylalanine-6]heptapeptide] (X16-T[Dap][Dab][Dab][dCha]L[Dab][Dab]T; lactam 3-C) | 4 (≈ 3.41 µM) | 16 (≈ 13.6 µM) | 0.125 (≈ 0.106 µM) | 2 (≈ 1.7 µM) | – | – | 16 (≈ 13.6 µM) | 0.125 (≈ 0.106 µM) | >64 | 32 (≈ 27.2 µM) | 0.125 (≈ 0.106 µM) | – | 64 (≈ 54.5 µM) | – | 4 (≈ 3.41 µM) | – | – | – | – | MIC P. aeruginosa CCUG 59347 (Pseudomonas aeruginosa): 0.25 µg/mL (≈ 0.213 µM); MIC E. coli NCTC 9001 (Escherichia coli): 0.125 µg/mL (≈ 0.106 µM); MIC A. baumanii NCTC 13424 (Acinetobacter baumannii): 0.06 µg/mL (≈ 0.0511 µM); MIC K. pneumoniae ATCC 13882 (Klebsiella pneumoniae): 0.25 µg/mL (≈ 0.213 µM)

— patent US12146004B2, “Polymyxin compounds and uses thereof” (priority 2014, dated 2024)
